From patent US20220298540A1, “METHOD AND REAGENTS FOR DETECTING LUCIFERASE ACTIVITY” (OBSCHESATVO S OGRANICHENNOY OTVETSTVENNOSTYU "PLANTA", priority 2019, published 2022)

Experiments:
[1] = test system: Odontosyllis undecimdonta worm luciferase; assay: Detecting bioluminescence in cold extracts of Odontosyllis undecimdonta worms; assay type: biochemical; settings: 1 μg in 100 μl tris-buffered saline pH 7.5, aliquots added to cold worm extracts; FIG. 12, FIG. 13
Experimental: Adding 5 ml of phosphate buffer (5 mM sodium phosphate buffer, pH 7.4) to 200 mg of lyophilized worms. Pipetting the mixture into liquid nitrogen to create small drops of frozen material, then grounding them in a mortar. Adding the frozen powder to 15 ml of phosphate buffer (5 mM sodium phosphate buffer, pH 7.4) and incubating for 40 minutes in an ice bath while stirring regularly. Centrifuging the mixture at 40,000 g (4° C.) for 40 min. Collecting the supernatant comprising luciferase, luciferin and oxyluciferin, freezing the cell-free extract and storing at −70° C. […] Extracts of Odontosyllis undecimdonta worms were used as biological samples. […]

[2] = test system: highly purified luciferase; assay: In vitro bioluminescence reaction, conversion of luciferin into oxyluciferin with highly purified luciferase; assay type: biochemical, Odontosyllis undecimdonta; settings: 60 μL pure luciferin fraction, 40 μL tris-buffered saline, 20 μL highly purified luciferase; no luminescence in control tube
Experimental: Each tube contained 60 μL of pure luciferin fraction, 40 μL of tris-buffered saline and 20 μL of highly purified luciferase (see section below) or tris-buffered saline in case of negative control. […] The reaction was monitored by using 5 μl aliquots of the reaction and control mixtures, followed by stopping the reaction in 0, 5, 15, 30, 60, 120, 180, and 300 min by adding 20 μl of methanol and centrifugation, after that, the reversed-phase HPLC was used to analyze the supernatants. A Shim-Pack XR-ODS column (3.0×75 mm, 2.2 μm) was used in combination with a Nexera X2 system (Shimadzu, Japan). Solvent A is a 0.1% formic acid solution, pH 4.9, solvent B is acetonitrile. Elution was carried out in a linear gradient with the solvent B concentration from 1 to 20% (15 min) at a flow rate of 0.7 ml/min. Purified luciferase samples were obtained as a result of sequential purification of an aqueous extract of lyophilized worms: ion-exchange chromatography in a HiTrap Fast Flow column with DEAE-Sepharose (GE Healthcare, Uppsala, Sweden), ultrafiltration in an Amicon® Ultra centrifugal filter (Merck Millipore, Germany) and gel filtration chromatography in a Superdex 200 column ([…]).

[3] = Storage stability of freeze-dried substrate; assay type: physicochemical; settings: −20° C.
Excerpt: This new luciferin isolated by the present inventors has a unique structure that distinguishes it from all previously described natural luciferins. Thus, the basis of the Odontosyllis worm luciferin molecule is a condensed heterocycle—thieno[3,2-f]thiochromene consisting of two six-membered and one five-membered rings. Such complex condensed tricyclic structures have not previously been found as bioluminescent reaction substrates. It is also worth noting that thiopyran is named in the composition of natural bioluminescent substrates for the first time. Odontosyllis worm luciferin is a strongly polar molecule and represents a strong acid, since this molecule comprises three carboxyl substituents and also carries a sulfonic acid residue. Freeze-dried substrate is stored at −20° C. without decrease in activity for at least 30 days, more often at least 60 days, normally at least a year.

[4] = Effect of light on luciferin; assay type: physicochemical; settings: confirmed experimentally
Excerpt: Formation of bioluminescence depends on the amount and preservation of luciferase in biological samples.

[5] = test system: recombinant luciferase Odontosyllis undecimdonta; assay: Detecting luciferase in lysates of mammalian cells comprising recombinant luciferase; settings: 1 μg in 100 μl tris-buffered saline pH 7.5, aliquots added to cell lysates with recombinant luciferase; FIG. 11
Experimental: Recombinant luciferase was obtained from luciferase complementary DNA synthesized as a linear double-stranded DNA fragment (Twist Biosciences, USA). Cloning was performed using the Golden Gate method. Eukaryotic cell expression plasmids were assembled into the plasmid of the MoClo pICH47742 kit as a backbone, and the following parts were cloned in level 0 vectors: cytomegalovirus promoter, luciferase candidate gene, termination codon comprising a part of DNA, and SV40 polyadenylation terminator. HEK293NT cells were transfected with FuGene 6 reagent plasmid (Promega, Fitchburg, Wis., USA) according to the manufacturer's protocol. The transfected cells were grown under standard conditions.
Lysates of mammalian cells comprising recombinant luciferase Odontosyllis undecimdonta were used as biological samples. Cell lysates were obtained as described above in the section “Obtaining native luciferase and recombinant luciferase samples”.

luminescence of biological samples [1] | radiation (luminescence) in the course of the reaction [2] | storage without decrease in activity [3] | effect of light emission, especially the UV part of the spectrum [4] | Compound | luminescence of biological samples [5]
detected | Radiation was observed | at least 30 days | degradation and loss of functionality | O=C(O)C1=Cc2c(c(OS(=O)(=O)O)c(O)c3scc(C(=O)O)c23)SC1C(=O)O (stereo not drawn) [luciferin, 4-hydroxy-5-(sulfooxy)-7H-thieno[3,2-f]thiochromen-1,7,8-tricarboxylic acid] | detected
detected |  |  |  | O=C(O)C(=O)C1=C(C(=O)O)Cc2c(c(OS(=O)(=O)O)c(O)c3scc(C(=O)O)c23)S1 [pre-luciferin, 7-(carboxycarbonyl)-4-hydroxy-5-(sulfooxy)-9H-thieno[3,2-f]thiochromene-1,8-dicarboxylic acid] | 
